Data as given in article PMC6368337, “GluClR-mediated inhibitory postsynaptic currents reveal targets for ivermectin and potential mechanisms of ivermectin resistance” (PLoS Pathogens, 2019).

Legend:
α (avr-14b) GluClRs = α (avr-14b) GluClRs (Haemonchus contortus, UniProt O46124); experiment: Two-electrode voltage clamp in oocytes, α GluClRs; format: cell-based, H. contortus
Method: (§1) cDNAs encoding the α (avr-14b) (pcDNA 3.1+) or β (pUNIV) GluClR subunits of H. contortus were nuclear injected into oocytes (NASCO, WI USA) or transfected into HEK293AD cells (CellBank Australia) using a calcium phosphate-DNA co-precipitate method. Synapse formation between neurons and HEK293 cells was promoted by co-transfecting neuroligin 2A or 1B and the cDNA encoding CD4 surface antigen was also added to the transfection mixture so as to identify transfected cells. The oocytes and HEK cells were used for experiments 2–3 days after the introduction of the cDNAs. All experiments were done at room temperature (22 ± 1°C).
(§2) Xenopus laevis oocytes were harvested by surgical incision. The oocytes were then defolliculated with 1.5 mg/ml collagenase for 2 hours. Free oocytes were rinsed with calcium-free OR-2 solution containing (in mM) 82.5 NaCl, 2 KCl, 1 MgCl2, 5 HEPES, pH 7.4 and mature stage V or VI oocytes were isolated for experiments. The DNAs coding for α and β subunits were nuclear injected into the oocytes using a Nanoliter 2000 microinjector (WPI Inc) at a ratio of (α:β), 1:0, 0:1, 1:1 and 1:50. The total amount of injected DNA in all combinations was 400 ng ml^−1, including the 1:50 (α:β) combination (8 ng of DNA encoding the α and 392 ng of DNA encoding β subunits). Injected oocytes were incubated in ND96 storage solution (in mM) 96 NaCl, 2 KCl, 1 MgCl2.6H2O, 1.8 CaCl2, 5 HEPES, 50 μg ml^−1 gentamicin, 2.5 sodium pyruvate, 0.5 theophylline, pH 7.4 at 16°C for 2–3 days before experiment.
(§3) For the two-electrode voltage clamp recordings, each oocyte was secured in a cell bath that was continually perfused with ND96 recording solution (ND96 storage solution without pyruvate, theophylline and gentamicin). […] The two microelectrodes contained 3 M KCl and had resistances of 0.2–2 MΩ. Recordings were done using Clampex 10.2 software (Molecular Devices) at a clamped voltage of −40 mV. Currents were low-pass filtered at 200 Hz, sampled at 2 kHz using a Gene Clamp 500B amplifier and digitised by a Digidata 1440A interface. The IVM (IVM B1a) concentration-response experiments were standardised by using an application protocol that consisted of applying increasing concentrations of IVM for, respectively, 3 min, 3 min, 3 min, 2 min, 1 min, 1 min and 0.5 min.
(§4) Group data were analysed in SigmaPlot 13.0 using one-way ANOVAs, where p < 0.05 was taken as the significance threshold and expressed as mean ± SEM. Tests for normally distributed data are built into the SigmaPlot software. Confocal images were captured and analysed with Zen 2012 SP2 (Zeiss) software. Oocyte concentration-response data were fit to a Hill equation to obtain an EC50 and Hill co-efficient for each oocyte recording. These parameters were then averaged across multiple oocyte experiments of the same type. Single channel recordings were analysed in QuB software. […] The selected critical times eliminated periods of receptor desensitisation while retaining singe receptor active periods. Mean active period duration and intra-activation open probability was estimated from each patch. Group means were obtained by averaging across multiple patches for each recording condition.

β GluClRs [1] = molecular target: T1, β GluClRs (Haemonchus contortus, UniProt P91730); experiment: Two-electrode voltage clamp in oocytes, β GluClRs; format: cell-based, H. contortus; conditions: glutamate-gated current, oocytes
T1 sequence (P91730 19-432): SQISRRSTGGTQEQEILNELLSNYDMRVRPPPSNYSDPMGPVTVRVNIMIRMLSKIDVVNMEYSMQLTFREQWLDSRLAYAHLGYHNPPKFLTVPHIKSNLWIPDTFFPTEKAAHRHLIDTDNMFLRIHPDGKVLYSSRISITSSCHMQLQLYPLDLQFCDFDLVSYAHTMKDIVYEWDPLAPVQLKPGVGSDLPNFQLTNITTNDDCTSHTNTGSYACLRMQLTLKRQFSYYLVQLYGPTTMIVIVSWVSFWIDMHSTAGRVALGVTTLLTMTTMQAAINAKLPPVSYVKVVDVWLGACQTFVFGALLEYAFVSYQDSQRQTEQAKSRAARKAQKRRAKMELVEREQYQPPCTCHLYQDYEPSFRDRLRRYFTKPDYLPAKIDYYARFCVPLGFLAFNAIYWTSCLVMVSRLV
Method: as §1
Xenopus laevis oocytes were harvested by surgical incision. The oocytes were then defolliculated with 1.5 mg/ml collagenase for 2 hours. Free oocytes were rinsed with calcium-free OR-2 solution containing (in mM) 82.5 NaCl, 2 KCl, 1 MgCl2, 5 HEPES, pH 7.4 and mature stage V or VI oocytes were isolated for experiments. The DNAs coding for α and β subunits were nuclear injected into the oocytes using a Nanoliter 2000 microinjector (WPI Inc) at a ratio of (α:β), 1:0, 0:1, 1:1 and 1:50. […]
Group data were analysed in SigmaPlot 13.0 using one-way ANOVAs, where p < 0.05 was taken as the significance threshold and expressed as mean ± SEM. […] Confocal images were captured and analysed with Zen 2012 SP2 (Zeiss) software. […] Single channel recordings were analysed in QuB software. […]

αβ (1:1) GluClRs [2] = molecular target: T2, αβ (1:1) GluClRs (Haemonchus contortus, UniProt O46124+P91730); experiment: Two-electrode voltage clamp in oocytes, αβ (1:1) GluClRs; format: cell-based, H. contortus; conditions: glutamate-gated current, oocytes, 1:1
T2 sequence (P91730 19-432): as above
T2 sequence (O46124 entry or part of it): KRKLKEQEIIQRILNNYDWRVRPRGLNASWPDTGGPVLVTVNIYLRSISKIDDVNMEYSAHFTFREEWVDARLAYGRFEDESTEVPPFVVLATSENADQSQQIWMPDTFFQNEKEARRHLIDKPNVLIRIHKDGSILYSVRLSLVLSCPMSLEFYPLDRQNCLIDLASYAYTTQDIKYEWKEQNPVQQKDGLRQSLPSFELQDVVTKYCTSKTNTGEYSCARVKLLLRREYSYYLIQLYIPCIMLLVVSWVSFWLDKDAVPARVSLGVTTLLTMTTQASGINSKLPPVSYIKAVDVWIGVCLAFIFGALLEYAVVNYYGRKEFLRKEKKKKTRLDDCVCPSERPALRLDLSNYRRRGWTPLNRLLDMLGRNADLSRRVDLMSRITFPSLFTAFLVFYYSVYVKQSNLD
Method: as §1, §2, §3
Group data were analysed in SigmaPlot 13.0 using one-way ANOVAs, where p < 0.05 was taken as the significance threshold and expressed as mean ± SEM. Tests for normally distributed data are built into the SigmaPlot software. Confocal images were captured and analysed with Zen 2012 SP2 (Zeiss) software. Oocyte concentration-response data were fit to a Hill equation to obtain an EC50 and Hill co-efficient for each oocyte recording. […] Single channel recordings were analysed in QuB software. […]

β GluClRs [3] = molecular target: T1, β GluClRs; experiment: Single channel recording, outside-out patches, β GluClRs; format: cell-based, H. contortus
Description: (§5) To explore whether a similar mechanism applies to β-containing GluClRs, we recorded single receptor currents in excised patches from cells transfected with either the α and β subunits (1:1) or the β subunit alone. […] By contrast, patches from cells transfected with the β subunit alone invariably opened to an amplitude of 0.4 pA (Fig 6C). Amplitude histograms confirmed two amplitude levels for αβ GluClRs and a single amplitude for the β GluClRs (Fig 6D). […] We infer that the αβ GluClRs that open to 0.7 pA likely contain a greater proportion of β subunits. This is consistent with β GluClRs having the smallest amplitude and α GluClRs having the greatest amplitude (1.8 pA) under similar recording conditions. The calculated conductance values for the corresponding amplitudes for αβ GluClRs was 15.2 pS and 8.9 pS and for the β GluClRs was 5.1 pS.
(§6) Single-channel currents were recorded from outside-out excised patches at a clamped potential of −70 mV. The single channel conductance was calculated by dividing the mean current by the net driving force at a clamped potential of ‐70 mV, after accounting for reversal and liquid junction potentials. Excised patches were continuously perfused via a gravity-fed double-barrelled glass tube, which contained extracellular bath solution containing (in mM), 140 NaCl, 5 KCl, 1 MgCl2, 2 CaCl2, 10 HEPES, and 10 D-glucose and titrated to pH 7.4. Glutamate and IVM were dissolved in this extracellular solution. Recording electrodes were pulled from borosilicate glass (G150F-3; Warner Instruments), coated with a silicone elastomer (Sylgard-184; Dow Corning) and heat-polished to a final tip resistance of 4–15 MΩ when filled with an intracellular solution containing (in mM) 145 CsCl, 2 MgCl2, 2 CaCl2, 10 HEPES, and 5 EGTA, pH 7.4. […] A 10 mM stock of IVM (Sigma-Aldrich) was dissolved in 100% DMSO and kept frozen at ‐20°C. Fresh working stocks of IVM at 5 nM were prepared by dissolving the appropriate quantity directly in extracellular solution. 100% DMSO when dissolved in extracellular solution alone at the same concentration as was present in working solutions containing 5 nM IVM had no effect on patches excised from cells transfected with GluClRs or from untransfected cells.
(§7) Currents were recorded using an Axopatch 200B amplifier (Molecular Devices), filtered at 5 kHz and digitized at 20 kHz using Clampex (pClamp 10 suite, Molecular Devices) via a Digidata 1440A digitizer.
(§8) Group data were analysed in SigmaPlot 13.0 using one-way ANOVAs, where p < 0.05 was taken as the significance threshold and expressed as mean ± SEM. Tests for normally distributed data are built into the SigmaPlot software. Confocal images were captured and analysed with Zen 2012 SP2 (Zeiss) software. Oocyte concentration-response data were fit to a Hill equation to obtain an EC50 and Hill co-efficient for each oocyte recording. These parameters were then averaged across multiple oocyte experiments of the same type. Single channel recordings were analysed in QuB software. […] Patches yielded between 30–250 individual active periods. […] The selected critical times eliminated periods of receptor desensitisation while retaining singe receptor active periods. Mean active period duration and intra-activation open probability was estimated from each patch. Group means were obtained by averaging across multiple patches for each recording condition.

αβ (1:1) GluClRs [4] = molecular target: T2, αβ (1:1) GluClRs; experiment: Single channel recording, outside-out patches, αβ (1:1) GluClRs; format: cell-based, H. contortus; conditions: for mean active period duration: −70 mV
Description: as §5, §6, §7, §8

αβ (1:50) GluClRs = αβ (1:50) GluClRs (Haemonchus contortus, UniProt O46124+P91730); experiment: Two-electrode voltage clamp in oocytes, αβ (1:50) GluClRs; format: cell-based, H. contortus
Chain of αβ (1:50) GluClRs (O46124 entry or part of it): as above
Chain of αβ (1:50) GluClRs (P91730 19-432): as the sequence (P91730 19-432) above
Method: as §1, §2, §3, §4

Lipophilicity (logP) = format: physicochemical
[5] = test system: Untransfected HEK293 cells; experiment: Membrane partitioning, time-lapse fluorescence
Method: Two types of experiments were conducted with IVM-bdpy. The first was aimed at monitoring the time-course of membrane accumulation. Untransfected HEK293 cells were incubated in extracellular solution containing 500 nM IVM-bdpy and time-lapse images were taken over a period of 30 min (Fig 8A). The change in total membrane fluorescence averaged from 5 repeat experiments was then plotted against time and fitted to a standard exponential function (Fig 8B). In a control experiment, the corresponding accumulation rate was also determined for bdpy. To obtain the net membrane partitioning time-course for IVM-1, the data for the bdpy alone was subtracted from the data obtained for IVM-bdpy (Fig 8B). The time constants for the three plots were 6.5 min for the IVM-bdpy, 8.2 min for the bdpy fluorophore and 6.0 min for IVM-1. As the lipophilic properties of IVM and IVM-1 are similar (logPs of 5.4 and 5.1, respectively), we infer this analysis quantitatively reflects the membrane partitioning properties of IVM. […] It should be noted, however, that the IVM-bdpy experiment was done using a 100-fold higher concentration of drug in un-transfected cells and represents passive membrane accumulation, whereas the current plateau involved IVM binding to and activating receptors.
Membrane partitioning and FRAP experiments were performed on an LSM 710 inverted 2-photon confocal microscope equipped with a 40X water immersion objective lens (1.2 NA/280 μM WD/0.208 μM/pixel and a GFP/Alexa 488 filter set. Untransfected HEK293 cells at a confluency of 50–75% were plated onto 35-mm glass bottom dishes one day prior to experiments. The IVM-bdpy fluorophore was dissolved in 100% DMSO and stored at ‐20°C at a concentration of 24 mM.
A Mai Tai eHP 2-photon laser/760-1040 nm was used as an excitation source (power at 920 nm) for the FRAP experiments. The laser and bleaching power were set to 7% and 75% respectively. Membrane partitioning images were taken for 35 min at 0.5 Hz after replacing the cell medium (extracellular solution) with one containing the IVM-bdpy probe at a concentration of 500 nM. FRAP images were taken at a frequency of 0.5 Hz for 10 min after a 30 min equilibration period in 500 nM IVM-bdpy.

Chain of α (avr-14b) GluClRs (O46124 entry or part of it): as the sequence (O46124 entry or part of it) above

| Structure (SMILES) | maximal current (α (avr-14b) GluClRs; glutamate-gated current, oocytes) | maximal current (β GluClRs [1]) | maximal current (αβ (1:1) GluClRs [2]) | intra-activation open probability (PO) (β GluClRs [3]; 2 μM glutamate) | mean active period duration (β GluClRs [3]; 2 μM glutamate, −70 mV) | intra-activation open probability (PO) (β GluClRs [3]; 3 mM glutamate) | mean active period duration (β GluClRs [3]; 3 mM glutamate) | intra-activation open probability (PO) (αβ (1:1) GluClRs [4]; 2 μM glutamate) | mean active period duration (αβ (1:1) GluClRs [4]; 2 μM glutamate, both stoichiometries pooled) | intra-activation open probability (PO) (αβ (1:1) GluClRs [4]; 3 mM glutamate) | mean active period duration (αβ (1:1) GluClRs [4]; 3 mM glutamate, pooled) | maximal current (αβ (1:50) GluClRs; glutamate-gated current, oocytes, 1:50) | efficacy (maximal current normalised to saturating glutamate) compared to IVM (α (avr-14b) GluClRs; 30 nM, normalised to 5 mM glutamate) | logP (Lipophilicity (logP)) | efficacy (maximal current normalised to saturating glutamate) compared to IVM (αβ (1:50) GluClRs; 30 nM, normalised to 5 mM glutamate, αβ 1:50) | differential efficacy between α and αβ (1:50) GluClRs (αβ (1:50) GluClRs; 30 nM, α versus αβ (1:50)) | net membrane partitioning time constant ([5]; bdpy data subtracted from IVM-bdpy data) | time to plateau of membrane partitioning ([5]; subtraction plot (IVM-bdpy minus bdpy)) |
| --- | --- | --- | --- | --- | --- | --- | --- | --- | --- | --- | --- | --- | --- | --- | --- | --- | --- | --- |
| N[C@@H](CCC(=O)O)C(=O)O [Glutamate, L-glutamate] | 3.7 ± 0.8 μA | 1.9 ± 0.3 μA | 2.0 ± 0.4 μA | 0.63 ± 0.07 | 7.5 ± 1.8 ms | 0.70 ± 0.11 | 164 ± 31 ms | 0.54 ± 0.06 | 40 ± 10 ms | 0.83 ± 0.03 | 146 ± 15 ms | 2.2 ± 0.4 μA | – | – | – | – | – | – |
| CC[C@H](C)[C@H]1O[C@]2(CC[C@@H]1C)C[C@@H]1C[C@@H](C/C=C(\C)[C@@H](O)[C@@H](C)/C=C/C=C3\CO[C@@H]4[C@H](O)C(C)=C[C@@H](C(=O)O1)[C@]34O)O2 [IVM-1] | – | – | – | – | – | – | – | – | – | – | – | – | significantly less efficacious than IVM | 5.1 | preservation of efficacy | retained differential efficacy | 6.0 min | 18 to 20 min |
